From ChEMBL document CHEMBL3808329, “Increase of rutin antioxidant activity by generating Maillard reaction products with lysine” (Bioorg Med Chem Lett, 2016)
Active and inactive are the calls of the source. No cut-off for these calls is given here.

Experiments:
[1] = Retention time of compound by HPLC method; type: physicochemical
[2] = Antioxidant activity assessed as DPPH scavenging activity at 20 to 100 ug/ml and 120 degC after 4 hrs by spectrophotometric method; type: physicochemical
[3] = Antioxidant activity assessed as DPPH scavenging activity at 20 to 100 ug/ml after 4 hrs in presence of lysine by spectrophotometric method; type: physicochemical
[4] = Drug metabolism assessed as increase in total phenolics at 120 degC after 4 hrs in presence of lysine by Folin-Ciocalteu method; type: physicochemical
[5] = system: HepG2; experiment: Antioxidant activity in human HepG2 cells assessed as reduction in Cu2+ induced oxidative stress at 50 to 200 ug/ml preincubated for 30 mins at 120 degC using DCFH-DA in presence of lysine by fluorescence assay; type: functional, cell-based
[6] = Metal chelating activity assessed as Cu2+ reducing activity at 120 degC after 4 hrs in presence of lysine; type: physicochemical
[7] = system: HepG2; experiment: Antioxidant activity in human HepG2 cells assessed as reduction in Cu2+ induced oxidative stress at 50 to 200 ug/ml preincubated for 30 mins in presence of lysine using DCFH-DA by fluorescence assay; type: functional, cell-based
[8] = system: HepG2; experiment: Antioxidant activity in human HepG2 cells assessed as reduction in Cu2+ induced oxidative stress at 50 to 200 ug/ml preincubated for 30 mins using DCFH-DA by fluorescence assay; type: functional, cell-based
[9] = Antioxidant activity assessed as DPPH scavenging activity at 60 to 100 ug/ml and 120 degC after 4 hrs in presence of lysine by spectrophotometric method; type: physicochemical
[10] = system: HepG2; experiment: Induction of Cu/Zn SOD gene expression in human HepG2 cells at 100 to 300 ug/ml at 120 degC after 4 hrs in presence of lysine by western blot analysis; type: functional, cell-based
[11] = system: HepG2; experiment: Antioxidant activity in human HepG2 cells assessed as increase in Cu/Zn SOD activity at 200 ug/ml at 120 degC after 4 hrs relative to control; type: functional, cell-based
[12] = system: HepG2; experiment: Antioxidant activity in human HepG2 cells assessed as increase in Cu/Zn SOD activity at 200 ug/ml in presence of lysine at 120 degC after 4 hrs relative to control; type: functional, cell-based
[13] = Antioxidant activity assessed as DPPH scavenging activity at 60 ug/ml and 120 degC after 4 hrs by spectrophotometric method; type: physicochemical

SMILES | Retention_time [1] [min] | Activity [2] | Activity [3] | Drug metabolism [4] | Activity [5] | Activity [6] | inhibition [7] | inhibition [8] | Activity [9] | Activity [10] | Activity [11] | Activity [12] | Activity [13] [%]
NCCCC[C@H](N)C(=O)O [LYSINE] | 2.01 |  |  |  |  |  |  |  |  |  |  |  | 
C[C@@H]1O[C@@H](N[C@@H](CCCCN)C(=O)O)[C@H](O)[C@H](O)[C@H]1O |  | Active | Active | metabolite_detected | Active | Active |  |  |  |  |  |  | 
C[C@@H]1O[C@@H](OC[C@H]2O[C@@H](Oc3c(-c4ccc(O)c(O)c4)oc4cc(O)cc(O)c4c3=O)[C@H](O)[C@@H](O)[C@@H]2O)[C@H](O)[C@H](O)[C@H]1O [RUTIN] | 8.94 |  | Dose-dependent effect | metabolite_detected | Active | Active | inactive | inactive | Active | Active | Active | Active | 
NCCCC[C@H](N[C@@H]1O[C@H](CO)[C@@H](O)[C@H](O)[C@H]1O)C(=O)O |  | Active | Active | metabolite_detected | Active | Active |  |  |  |  |  |  | 
O=C1O[C@H]([C@@H](O)CO)C(O)=C1O [ASCORBIC ACID] |  |  |  |  |  |  |  |  |  |  |  |  | 90.6
